PubChem BioAssay (NCI)
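Assay format: 96-well plates, 48-hour exposure. The concentration for full growth arrest is given as TGI.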

Key:
Assay in all cases: NCI-60 cell line screen, 48 h
[1] = test system: MOLT-4 leukemia
[2] = test system: HCC-2998 colon
[3] = test system: U251 CNS
[4] = test system: COLO 205 colon
[5] = test system: MDA-MB-435
[6] = test system: SNB-19 CNS
[7] = test system: SK-MEL-2 melanoma
[8] = test system: UACC-62 melanoma
[9] = test system: PC-3 prostate
[10] = test system: SF-295 CNS
[11] = test system: DU-145 prostate
[12] = test system: HT29 colon

Row | Structure (SMILES) | TGI [1] [µM] | TGI [2] [µM] | TGI [3] [µM] | TGI [4] [µM] | TGI [5] [µM] | TGI [6] [µM] | TGI [7] [µM] | TGI [8] [µM] | TGI [9] [µM] | TGI [10] [µM] | TGI [11] [µM] | TGI [12] [µM]
1 | CN(C)Cc1cc(N=Nc2c(Cl)cccc2Cl)ccc1O | > 100 | > 100 | > 100 | > 100 | > 100 | > 100 | > 100 | > 100 | > 100 | > 100 | > 100 | > 100
2 | CC(C)(C)c1cc(C(C)(C)C)c(P=C(Cl)Cl)c(C(C)(C)C)c1 (stereo not given) | > 100 | > 100 | > 100 | > 100 | > 100 | > 100 | > 100 | > 100 | > 100 | > 100 | > 100 | > 100
3 | COc1ccccc1/[N+]([O-])=C/c1ccccc1OC(=S)S | > 100 | 80.4 | > 100 | 86 | 36 | > 100 | 80.2 | > 100 | > 100 | > 100 | > 100 | > 100
4 | CCOC(=O)NC(OCCN(C)C)(C(F)(F)F)C(F)(F)F | > 100 | > 100 | > 100 | > 100 | > 100 | > 100 | > 100 | > 100 | > 100 | > 100 | > 100 | > 100
5 | N#Cc1c(-c2cccc(Br)c2)cc(-c2ccc(Cl)cc2)nc1N | 50.1 | 34 | 32.8 | 27.2 | 38.2 | 40.1 | 31.5 | 29.2 | 71.3 | 35.5 | > 100 | 39.2
6 | CCOC(=O)c1csc(NC(=O)CN2CCCCC2)n1 | > 100 | > 100 | > 100 | > 100 | > 100 | > 100 | > 100 | > 100 | > 100 | > 100 | > 100 | > 100
7 | COc1ccc(/C=C/C(=N/NC(=O)N/N=C(/C=C/c2ccc(OC)cc2)C(C)C)C(C)C)cc1 | > 100 | > 100 | > 100 | > 100 | > 100 | > 100 | > 100 | > 100 | > 100 | > 100 | > 100 | > 100
8 | CCOC(=O)N(C)CCC1CC=CC(=O)C1c1cccc(OC)c1OC (stereo not given) | 64.5 | 25.8 | 43 | 17.8 | 28.8 | 85.6 | 35 | 32.5 | > 100 | 98.8 | 44.4 | 34.1
9 | N#CCN(Cc1ccccc1)[C@H]1CCC[C@]1(O)/C=C/c1ccc2c(c1)OCO2 | 48.1 | 33.4 | 38.6 | 30.5 | 53.2 | 76.3 | 42.8 | 37.9 | 35.7 | 31.4 | > 100 | 29.8
10 | CC(C)C(=O)CC(Sc1ccc(N)cc1)c1ccccc1 (stereo not given) | > 100 | 57.5 | 32.9 | > 100 | 39.8 | > 100 | 61.8 | 72.1 | > 100 | > 100 | > 100 | > 100
11 | Nc1c(O)c2c(c(O)c1Cl)C(=O)C=CC2=O | > 87.6 | 11.9 | 15.8 | 3.32 | 3.16 | 14.2 | 23.8 | 3.05 | 14.8 | 6.94 | 5.3 | 8.21
12 | COc1ccc2c(c1)nc1n2C(c2c(F)cccc2F)SC1 (stereo not given) | > 100 | > 100 | > 100 | > 100 | > 100 | > 100 | 96.7 | > 100 | > 100 | > 100 | > 100 | > 100
13 | COc1ccc(C[C@H]2NC[C@H](OC(C)=O)[C@H]2OC(C)=O)cc1 | 1.98 | 0.357 | 1.6 | 0.311 | 1.23 | 0.446 | 0.627 | 4.23 | 1.08 | 4.26 | 0.903 | 1.04
14 | N/C(=N\Nc1cccc(Cl)c1)c1cccnc1 | > 100 | > 100 | > 100 | > 72.1 | > 30.1 | > 100 | > 100 | > 100 | > 100 | > 100 | > 100 | > 83.9
15 | COP(=N[Si](C)(C)C)(OC)OC | > 100 | > 100 | > 100 | > 100 | > 100 | > 100 | > 100 | > 100 | > 100 | – | > 100 | > 100
16 | CCOC(=O)C(C)c1nc2cc(F)c(N3CCOCC3)cc2[nH]c1=O (stereo not given) | > 100 | > 100 | > 100 | > 100 | > 100 | > 100 | > 100 | > 100 | > 100 | > 100 | > 100 | > 100
17 | CSC1=C(C)S/C(=C\c2ccc(/C=C3\SC(C)=C(SC)S3)cc2)S1 | > 100 | > 100 | > 100 | > 100 | > 100 | > 100 | > 100 | > 100 | > 100 | > 100 | > 100 | > 100
18 | COC(=O)C1=C(O)C(C(=O)OC)[C@]2(O)[C@H](C(=O)OC)[C@H]1C[C@@H](c1ccc(Cl)cc1Cl)[C@H]2C(=O)OC (stereo not given in full) | 8.98 | 21.9 | 14.4 | 20.9 | 21.2 | 24.3 | 20.3 | 35.3 | 23.5 | 31.6 | 25.7 | 27.4
